Numbers after ± are expanded uncertainties.

The data set in a line: activity coefficient (dimensionless); of the first substance listed, at infinite dilution; xn = mol fraction of the nth substance listed. To be noted: 101 kPa, Liquid, Chromatography, x1 = 0.

Turning to `ClCc1ccccc1` [(chloromethyl)benzene] + CCCCCCCCCCCC(=O)O, the activity coefficient came to 1.71 ± 0.15 (358.06 K) and 1.71 ± 0.15 (358.1 K).

As to `ClCCCl` [1,2-dichloroethane] + CCCCCCCCCCCCCCCC(=O)O, the activity coefficient turned out to be 1.22 ± 0.1 (340.19 K), 1.19 ± 0.099 (348.01 K) and 1.14 ± 0.095 (358.22 K).

On to `Clc1ccccc1` [chlorobenzene] + CCCCCCCCCC(=O)O, for which the activity coefficient was determined as 1.16 ± 0.096 (333.26 K), 1.18 ± 0.098 (333.38 K), 1.17 ± 0.097 (353.25 K) and 1.15 ± 0.096 (353.3 K).

Consider `COc1ccccc1` [anisole] + CCCCCCCCCCCCCC(=O)O, for which the activity coefficient runs as follows: (314.1 K) 1.32 ± 0.11; (314.24 K) 1.3 ± 0.11; (333.26 K) 1.29 ± 0.11; (333.38 K) 1.27 ± 0.11; (353.25 K) 1.24 ± 0.1; (353.3 K) 1.21 ± 0.1.

As for `CCc1ccccc1` [ethylbenzene] + CCCCCCCCCC(=O)O, the activity coefficient runs as follows: (333.26 K) 1.28 ± 0.11; (333.35 K) 1.3 ± 0.11; (353.3 K) 1.22 ± 0.1.

For the molecule `ClC=C(Cl)Cl` [trichloroethene] + CCCCCCCCCCCC(=O)O, the activity coefficient came out at 0.952 ± 0.078 (314.1 K); 0.967 ± 0.079 (314.24 K); 0.944 ± 0.078 (333.26 K); 0.951 ± 0.078 (333.38 K); 0.933 ± 0.077 (353.25 K).

`ClC(Cl)Cl` [trichloromethane] + CCCCCCCCCC(=O)O: the activity coefficient (314.1 K) is 0.823 ± 0.069; the activity coefficient (314.24 K) was determined as 0.846 ± 0.07; the activity coefficient (333.26 K) was found to be 0.85 ± 0.071; the activity coefficient (333.38 K) turned out to be 0.827 ± 0.069; the activity coefficient (353.3 K) amounted to 0.825 ± 0.069.

`CCO` [ethanol] + CCCCCCCCCCCCCCCC(=O)O: the activity coefficient runs as follows: (340.19 K) 1.93 ± 0.17; (348.01 K) 1.8 ± 0.15; (358.23 K) 1.62 ± 0.14.

As for `ClCCCl` [1,2-dichloroethane] + CCCCCCCCCCCC(=O)O, the activity coefficient reads like this: (314.1 K) 1.38 ± 0.12; (314.24 K) 1.37 ± 0.12; (333.26 K) 1.3 ± 0.11; (333.38 K) 1.32 ± 0.11; (353.25 K) 1.23 ± 0.1.

`COc1ccccc1` [anisole] + CCCCCCCCCCCCCCCC(=O)O: the activity coefficient runs as follows: (340.19 K) 1.3 ± 0.11; (348.01 K) 1.28 ± 0.11; (358.22 K) 1.25 ± 0.1.

With `CCCCCC` [hexane] + CCCCCCCCCCCCCCCC(=O)O, the activity coefficient (340.19 K) came to 1.29 ± 0.11, the activity coefficient (348.01 K) came to 1.3 ± 0.11 and the activity coefficient (358.22 K) stood at 1.3 ± 0.11.

On to `ClCCCl` [1,2-dichloroethane] + CCCCCCCCCC(=O)O, for which the activity coefficient is, setting by setting: (314.1 K) 1.45 ± 0.12; (314.24 K) 1.5 ± 0.13; (333.26 K) 1.35 ± 0.11; (333.38 K) 1.4 ± 0.12; (353.3 K) 1.27 ± 0.11.

Regarding `C=CCCCC` [hex-1-ene] + CCCCCCCCCCCCCC(=O)O, the activity coefficient worked out at 1.24 ± 0.1 (314.24 K), 1.22 ± 0.1 (333.26 K), 1.21 ± 0.1 (333.38 K) and 1.18 ± 0.098 (353.3 K).

For `C=CCCCC` [hex-1-ene] + CCCCCCCCCCCCCCCC(=O)O, the activity coefficient amounted to 1.17 ± 0.097 (340.17 K), 1.18 ± 0.098 (348.01 K) and 1.2 ± 0.1 (358.22 K).

For the molecule `ClC=C(Cl)Cl` [trichloroethene] + CCCCCCCCCC(=O)O, the activity coefficient was found to be 1.05 ± 0.086 (314.1 K); 1.04 ± 0.085 (314.24 K); 1 ± 0.082 (333.26 K); 1.01 ± 0.083 (333.38 K); 0.945 ± 0.078 (353.08 K); 0.969 ± 0.08 (353.3 K).

For `CCOC(C)=O` [ethyl acetate] + CCCCCCCCCCCC(=O)O, the activity coefficient reads like this: (314.1 K) 1.37 ± 0.12; (314.24 K) 1.36 ± 0.11; (333.38 K) 1.28 ± 0.11; (353.25 K) 1.2 ± 0.1; (353.3 K) 1.21 ± 0.1.

The record behind these values is the NIST ThermoML archive (doi:10.1016/j.jct.2012.06.009).
